pIC50: −log10 of the molar value. Where only a bound is given, the exact number is not on record here.

Assay [1] addresses T1, PDE5A1 (Homo sapiens, UniProt O76074). The experiment in a line: radiometric 3H-cGMP hydrolysis assay, inhibition ratio at […]. The arrangement: gene PDE5A; catalytic domain, amino acids 535–860. It counts as biochemical.
The target of assay [2] is PDE10A (Homo sapiens, UniProt Q9Y233). The assay is described as follows: radiometric 3H-cAMP/3H-cGMP hydrolysis assay, single concentration. It counts as biochemical.
Chain of PDE10A (Q9Y233 whole entry): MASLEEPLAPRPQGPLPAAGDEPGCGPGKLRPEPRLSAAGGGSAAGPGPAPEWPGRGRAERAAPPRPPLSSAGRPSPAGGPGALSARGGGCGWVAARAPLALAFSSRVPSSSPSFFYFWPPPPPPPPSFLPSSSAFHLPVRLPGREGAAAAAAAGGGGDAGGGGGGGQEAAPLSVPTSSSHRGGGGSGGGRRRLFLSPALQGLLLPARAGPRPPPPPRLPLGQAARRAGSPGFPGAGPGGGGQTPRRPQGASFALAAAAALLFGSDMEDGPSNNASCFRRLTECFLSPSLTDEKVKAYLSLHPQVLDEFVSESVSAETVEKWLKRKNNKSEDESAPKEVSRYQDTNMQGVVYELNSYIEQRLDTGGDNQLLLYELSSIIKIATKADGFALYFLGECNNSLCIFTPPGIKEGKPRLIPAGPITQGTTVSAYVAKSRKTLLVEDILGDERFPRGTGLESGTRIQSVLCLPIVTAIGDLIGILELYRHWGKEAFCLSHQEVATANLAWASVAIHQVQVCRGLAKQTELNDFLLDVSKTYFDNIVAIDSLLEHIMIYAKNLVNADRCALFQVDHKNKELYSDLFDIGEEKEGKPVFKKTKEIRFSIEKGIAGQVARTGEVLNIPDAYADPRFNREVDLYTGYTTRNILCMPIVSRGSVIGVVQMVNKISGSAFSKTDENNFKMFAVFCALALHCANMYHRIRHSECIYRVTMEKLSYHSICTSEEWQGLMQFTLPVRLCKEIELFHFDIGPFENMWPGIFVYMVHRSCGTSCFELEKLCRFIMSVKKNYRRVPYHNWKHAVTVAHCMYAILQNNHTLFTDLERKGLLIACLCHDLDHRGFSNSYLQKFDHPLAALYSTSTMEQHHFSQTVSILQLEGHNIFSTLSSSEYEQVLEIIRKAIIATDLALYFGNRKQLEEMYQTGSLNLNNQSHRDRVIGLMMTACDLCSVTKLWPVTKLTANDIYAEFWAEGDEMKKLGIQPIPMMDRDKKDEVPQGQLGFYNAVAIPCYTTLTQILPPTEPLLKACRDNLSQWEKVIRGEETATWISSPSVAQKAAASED
The target in assay [3] is PDE11A (Homo sapiens, UniProt Q9HCR9). The assay is described as above. It counts as biochemical.
Chain of PDE11A (Q9HCR9 whole entry, the tested form may be a part): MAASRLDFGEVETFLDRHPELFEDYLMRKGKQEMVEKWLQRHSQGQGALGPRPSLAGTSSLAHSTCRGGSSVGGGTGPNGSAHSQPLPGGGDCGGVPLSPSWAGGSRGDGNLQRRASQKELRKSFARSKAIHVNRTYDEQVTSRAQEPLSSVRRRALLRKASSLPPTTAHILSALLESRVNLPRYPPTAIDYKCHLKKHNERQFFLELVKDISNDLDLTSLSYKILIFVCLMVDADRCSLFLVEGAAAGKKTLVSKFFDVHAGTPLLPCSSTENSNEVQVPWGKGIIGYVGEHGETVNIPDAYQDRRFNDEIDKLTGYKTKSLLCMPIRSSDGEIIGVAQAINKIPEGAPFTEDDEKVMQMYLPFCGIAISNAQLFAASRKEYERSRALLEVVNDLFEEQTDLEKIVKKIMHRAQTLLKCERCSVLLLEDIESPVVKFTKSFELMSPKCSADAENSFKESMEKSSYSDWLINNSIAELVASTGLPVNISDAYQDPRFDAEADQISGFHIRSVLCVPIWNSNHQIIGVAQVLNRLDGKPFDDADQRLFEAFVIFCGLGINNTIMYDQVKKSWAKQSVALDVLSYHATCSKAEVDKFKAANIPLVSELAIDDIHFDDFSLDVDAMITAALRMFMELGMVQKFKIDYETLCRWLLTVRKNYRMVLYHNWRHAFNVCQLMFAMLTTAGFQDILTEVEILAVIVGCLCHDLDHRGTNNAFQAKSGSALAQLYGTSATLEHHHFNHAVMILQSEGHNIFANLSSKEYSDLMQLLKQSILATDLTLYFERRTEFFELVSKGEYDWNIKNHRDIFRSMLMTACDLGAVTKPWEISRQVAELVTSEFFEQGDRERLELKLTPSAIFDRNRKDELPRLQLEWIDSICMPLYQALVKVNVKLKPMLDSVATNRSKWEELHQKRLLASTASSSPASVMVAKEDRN
Assay [4] concerns the target T1, PDE5A1. The assay is described as follows: radiometric 3H-cGMP hydrolysis assay, dose-response. It counts as biochemical. On the set-up: gene PDE5A; catalytic domain, amino acids 535–860.
Assay [5] deals with T1, PDE5A1. The arrangement: gene PDE5A.

For the molecule `CC1(C2CCc3c(O)c4c(c(O)c3C2)C(=O)c2ccccc2C4=O)OCCO1` (stereo not drawn) [AE-508/36401018], the inhibition at 10 µM in assay [1] was greater than 50%.

In the case of `COc1cc([N+](=O)[O-])cc2c1C(=O)Nc1ccccc1O2` [AG-205/40649212], the inhibition at 10 µM in assay [1] was greater than 50%.

For `COc1cccc2c1C(=O)c1c(O)ccc(O)c1C2=O` [AG-650/41069360], the inhibition at 10 µM in assay [1] was greater than 50%.

`Cc1sc(N)c2c(=O)oc3c4ccccc4ccc3c12` [AI-898/12177002]: the “% inhibition at 10 μM” value in assay [2] was found to be 79; in assay [3], 63. Also, in assay [4], the pIC50 is 5.80.

As for `COc1ccc(-c2cc3[nH]nc(N)c3c(=O)[nH]2)cc1` [AR-270/43409613], in assay [1], the inhibition at 10 µM is greater than 50%.

With `COc1cccc2c1C(=O)/C(=C/c1ccc(N(C)C)cc1)C2` [AT-051/43410123], the inhibition at 10 µM in assay [1] is greater than 50%.

As for `CCCc1nn(C)c2c(=O)[nH]c(-c3cc(S(=O)(=O)N4CCN(C)CC4)ccc3OCC)nc12` [Sildenafil], the “% inhibition at 10 nM” value in assay [5] was greater than 50.
